Here are results for 15 compounds from patent US20240383874A1, “BENZENE RING DERIVATIVE, AND COMPOSITION AND PHARMACEUTICAL USE THEREOF” (Xizang Haisco Pharmaceutical Co., Ltd., priority 2020, published 2024).

The structures appear in SMILES notation. Where a name gives a salt, the structure may show the parent alone. Read-outs that look alike come from different tables or passages of the source.

In the assay the test system is 22RV1 cells. As to the kind of experiment: Experiment 2 on inhibiting 22RV1 cell proliferation (7 days, CellTiter-Glo). It counts as cell-based. Conditions: 1% css-FBS phenol red-free medium, incubated with compound 7 days, read-out: IC50 values on proliferation inhibition of 22RV1 cells. As to the method:
Prostate cancer cells 22RV1 were purchased from ATCC, the cell medium was RPMI 1640+10% FBS, and the cells were cultured in an incubator at 37° C. under 5% CO2. On day 1, the cells in an exponential phase were collected. With a 1% css-FBS phenol red-free medium, the cell suspension was adjusted to a corresponding concentration, plated at 2000 cells/well and incubated overnight. On day 2, compounds at different concentrations were added, and the plate was placed in the incubator and incubated for further 7 days. After the incubation was completed, according to operation instructions for a CellTiter-Glo kit (Promega, G7573), 50 μL of CTG solution, which was already pre-melted and equilibrated to room temperature, was added to each well, and the mixtures were uniformly mixed for 2 min using a microplate shaker. The plate was placed at room temperature for 10 min, and then fluorescence signal values were measured using a microplate reader (PHERAstar FSX). The results were processed according to formula (2), the survival rate of the compound at different concentrations was calculated, and the IC50 value of the compound with a survival rate of 50% was calculated using origin9.2 software with DoseResp function, wherein RLU compound was the readout of the treated group, and RLU control was the average value of the DMSO vehicle control group.
Background: Cellular ATP, detected with luciferase, serves as a proxy for viable cell number.

Consider `CC(C)(c1ccc(OCc2ccnc(N3CCC(CN4CCC5(CC4)CCN(c4ccc6c(c4)C(=O)N(C4CCC(=O)NC4=O)C6=O)CC5)CC3)n2)cc1)c1cc(Cl)cc(C#N)c1` (stereo not drawn) [Compound 77 trifluoroacetate, 3-chloro-5-(2-(4-((2-(4-((9-(2-(2,6-dioxopiperidin-3-yl)-1,3-dioxoisoindolin-5-yl)-3,9-diazaspiro[5.5]undecan-3-yl)methyl)piperidin-1-yl)pyrimidin-4-yl)methoxy)phenyl)propan-2-yl)benzonitrile], for which the IC50 (Homo sapiens, 22Rv1, 168 h) was 192 nM.

`CC(C)(c1ccc(OCc2ccnc(N3CCC(N4CC(N5CCN(c6ccc7c(c6)C(=O)N(C6CCC(=O)NC6=O)C7=O)CC5)C4)CC3)n2)cc1)c1cc(Cl)cc(C#N)c1` (stereo not drawn) [Compound 64 trifluoroacetate, 3-chloro-5-(2-(4-((2-(4-(3-(4-(2-(2,6-dioxopiperidin-3-yl)-1,3-dioxoisoindolin-5-yl)piperazin-1-yl)azetidin-1-yl)piperidin-1-yl)pyrimidin-4-yl)methoxy)phenyl)propan-2-yl)benzonitrile]: the IC50 (Homo sapiens, 22Rv1, 168 h) worked out at 637 nM.

On to `COc1c(Cl)cc(C(C)(C)c2ccc(OCc3ccnc(N4CCC5(CCC(CN6CCC(c7ccc8c(c7)n(C)c(=O)n8C7CCC(=O)NC7=O)CC6)CC5)CC4)n3)cc2)cc1C#N` (stereo not drawn) [Compound 93 trifluoroacetate, 3-chloro-5-(2-(4-((2-(9-((4-(1-(2,6-dioxopiperidin-3-yl)-3-methyl-2-oxo-2,3-dihydro-1H-benzo[d]imidazol-5-yl)piperidin-1-yl)methyl)-3-azaspiro[5.5]undecan-3-yl)pyrimidin-4-yl)methoxy)phenyl)propan-2-yl)-2-methoxybenzonitrile], for which, where the note is “Homo sapiens, 22Rv1, 168 h”, the IC50 was 554 nM.

In the case of `Cn1c(=O)n(C2CCC(=O)NC2=O)c2ccc(CN3CC(N4CCC(N5CCN(c6nccc(COc7ccc(C(C)(C)c8cc(Cl)cc(C#N)c8)cc7)n6)CC5)CC4)C3)cc21` (stereo not drawn) [Compound 71 trifluoroacetate, 3-chloro-5-(2-(4-((2-(4-(1-(1-((1-(2,6-dioxopiperidin-3-yl)-3-methyl-2-oxo-2,3-dihydro-1H-benzo[d]imidazol-5-yl)methyl)azetidin-3-yl)piperidin-4-yl)piperazin-1-yl)pyrimidin-4-yl)methoxy)phenyl)propan-2-yl)benzonitrile], the IC50 (Homo sapiens, 22Rv1, 168 h) worked out at 811 nM.

As for `Cn1c(=O)n(C2CCC(=O)NC2=O)c2ccc(N3CCC(C4CCN(C5CCN(c6nccc(COc7ccc(C(C)(C)c8cc(Cl)cc(C#N)c8)cc7)n6)CC5)CC4)CC3)cc21` (stereo not drawn) [Compound 104 trifluoroacetate, 3-chloro-5-(2-(4-((2-(1″-(1-(2,6-dioxopiperidin-3-yl)-3-methyl-2-oxo-2,3-dihydro-1H-benzo[d]imidazol-5-yl)-[4,1′:4′,4″-terpiperidin]-1-yl)pyrimidin-4-yl)methoxy)phenyl)propan-2-yl)benzonitrile], the IC50 (Homo sapiens, 22Rv1, 168 h) turned out to be 664 nM.

Turning to `Cn1c(=O)n(C2CCC(=O)NC2=O)c2ccc(C3CCN(CC4CCN(c5nccc(COc6ccc(C(C)(C)c7cc(Cl)cc(C#N)c7)cc6)n5)CC4)CC3)cc21` (stereo not drawn) [Compound 105 trifluoroacetate, 3-chloro-5-(2-(4-((2-(4-((4-(1-(2,6-dioxopiperidin-3-yl)-3-methyl-2-oxo-2,3-dihydro-1H-benzo[d]imidazol-5-yl)piperidin-1-yl)methyl)piperidin-1-yl)pyrimidin-4-yl)methoxy)phenyl)propan-2-yl)benzonitrile], for the setting “Homo sapiens, 22Rv1, 168 h”, the IC50 worked out at 575 nM.

As to `CC(C)(c1ccc(OCc2ccnc(N3CCN(C4CCN(CC5CCN(c6ccc7c(c6)C(=O)N(C6CCC(=O)NC6=O)C7=O)C5)C4)CC3)n2)cc1)c1cc(Cl)cc(C#N)c1` (stereo not drawn) [Compound 62 trifluoroacetate, 3-chloro-5-(2-(4-((2-(4-(1-((1-(2-(2,6-dioxopiperidin-3-yl)-1,3-dioxoisoindolin-5-yl)pyrrolidin-3-yl)methyl)pyrrolidin-3-yl)piperazin-1-yl)pyrimidin-4-yl)methoxy)phenyl)propan-2-yl)benzonitrile], the IC50 (Homo sapiens, 22Rv1, 168 h) is 735 nM.

Regarding `CC(C)(c1ccc(OCc2ccnc(N3CCC4(CC3)CN(C3CCN(C5CN(c6ccc7c(c6)C(=O)N(C6CCC(=O)NC6=O)C7=O)C5)CC3)C4)n2)cc1)c1cc(Cl)c(OCCCl)c(C#N)c1` (stereo not drawn) [Compound 20, 3-chloro-2-(2-chloroethoxy)-5-(2-(4-((2-(2-(1-(1-(2-(2,6-dioxopiperidin-3-yl)-1,3-dioxoisoindolin-5-yl)azetidin-3-yl)piperidin-4-yl)-2,7-diazaspiro[3.5]nonan-7-yl)pyrimidin-4-yl)methoxy)phenyl)propan-2-yl)benzonitrile], the IC50 came to 954 nM.

As to `Cc1ncsc1-c1ccc([C@H](C)NC(=O)[C@@H]2C[C@@H](O)CN2C(=O)[C@@H](NC(=O)CN2CCC(CN3CCC(N4CCN(c5nccc(COc6ccc(C(C)(C)c7cc(Cl)cc(C#N)c7)cc6)n5)CC4)CC3)CC2)C(C)(C)C)cc1` [Compound 50 trifluoroacetate, (2S,4R)-1-((S)-2-(2-(4-((4-(4-(4-((4-(2-(3-chloro-5-cyanophenyl)propan-2-yl)phenoxy)methyl)pyrimidin-2-yl)piperazin-1-yl)piperidin-1-yl)methyl)piperidin-1-yl)acetamido)-3,3-dimethylbutanoyl)-4-hydroxy-N-((S)-1-(4-(4-methylthiazol-5-yl)phenyl)ethyl)pyrrolidine-2-carboxamide], the IC50 (Homo sapiens, 22Rv1, 168 h) is 398 nM.

Regarding `COc1c(Cl)cc(C(C)(C)c2ccc(OCc3ccnc(N4CCC5(CC4)CC(CN4CCC(c6ccc7c(c6)n(C)c(=O)n7C6CCC(=O)NC6=O)CC4)C5)n3)cc2)cc1C#N` (stereo not drawn) [Compound 113 trifluoroacetate, 3-chloro-5-(2-(4-((2-(2-((4-(1-(2,6-dioxopiperidin-3-yl)-3-methyl-2-oxo-2,3-dihydro-1H-benzo[d]imidazol-5-yl)piperidin-1-yl)methyl)-7-azaspiro[3.5]nonan-7-yl)pyrimidin-4-yl)methoxy)phenyl)propan-2-yl)-2-methoxybenzonitrile], for the setting “Homo sapiens, 22Rv1, 168 h”, the IC50 came out at 419 nM.

Consider `Cn1c(=O)n(C2CCC(=O)NC2=O)c2cccc(C3CCN(CC4(F)CCN(C5CC6(CCN(c7nccc(COc8ccc(C(C)(C)c9cc(Cl)cc(C#N)c9)cc8)n7)CC6)C5)CC4)CC3)c21` (stereo not drawn) [Compound 115 trifluoroacetate, 3-chloro-5-(2-(4-((2-(2-(4-((4-(1-(2,6-dioxopiperidin-3-yl)-3-methyl-2-oxo-2,3-dihydro-1H-benzo[d]imidazol-4-yl)piperidin-1-yl)methyl)-4-fluoropiperidin-1-yl)-7-azaspiro[3.5]nonan-7-yl)pyrimidin-4-yl)methoxy)phenyl)propan-2-yl)benzonitrile], for which the IC50 (Homo sapiens, 22Rv1, 168 h) turned out to be 955 nM.

Turning to `CC(C)(c1ccc(OCc2ccnc(N3CCN(CC4CCN(CC5CCN(c6cccc7c6C(=O)N(C6CCC(=O)NC6=O)C7=O)CC5)CC4)CC3)n2)cc1)c1cc(Cl)c(OCCCl)c(C#N)c1` (stereo not drawn) [Compound 14, 3-chloro-2-(2-chloroethoxy)-5-(2-(4-((2-(4-((1-((1-(2-(2,6-dioxopiperidin-3-yl)-1,3-dioxoisoindolin-4-yl)piperidin-4-yl)methyl)piperidin-4-yl)methyl)piperazin-1-yl)pyrimidin-4-yl)methoxy)phenyl)propan-2-yl)benzonitrile], the IC50 is 628 nM.

With `CC(C)(c1ccc(OCc2ccnc(N3CCC4(CC3)CCN(C3CCN(CC5CCN(c6cccc7c6C(=O)N(C6CCC(=O)NC6=O)C7=O)CC5)CC3)CC4)n2)cc1)c1cc(Cl)c(OCCCl)c(C#N)c1` (stereo not drawn) [Compound 28, 3-chloro-2-(2-chloroethoxy)-5-(2-(4-((2-(9-(1-((1-(2-(2,6-dioxopiperidin-3-yl)-1,3-dioxoisoindolin-4-yl)piperidin-4-yl)methyl)piperidin-4-yl)-3,9-diazaspiro[5.5]undecan-3-yl)pyrimidin-4-yl)methoxy)phenyl)propan-2-yl)benzonitrile], the IC50 was determined as 634 nM.

For the compound `CC(C)(c1ccc(OCc2ccnc(N3CCC4(CC3)CN(C3CCN(C5CN(c6ccc7c(c6)C(=O)N(C6CCC(=O)NC6=O)C7=O)C5)CC3)C4)n2)cc1)c1cc(Cl)cc(C#N)c1` (stereo not drawn) [Compound 75 trifluoroacetate, 3-chloro-5-(2-(4-((2-(2-(1-(1-(2-(2,6-dioxopiperidin-3-yl)-1,3-dioxoisoindolin-5-yl)azetidin-3-yl)piperidin-4-yl)-2,7-diazaspiro[3.5]nonan-7-yl)pyrimidin-4-yl)methoxy)phenyl)propan-2-yl)benzonitrile], the IC50 (Homo sapiens, 22Rv1, 168 h) was determined as 275 nM.

Regarding `CCOc1c(Cl)cc(C(C)(C)c2ccc(OCc3ccnc(N4CCC5(CC4)CC(N4CCC(CN6CCC(c7ccc8c(c7)n(C)c(=O)n8C7CCC(=O)NC7=O)CC6)CC4)C5)n3)cc2)cc1C#N` (stereo not drawn) [Compound 109 trifluoroacetate, 3-chloro-5-(2-(4-((2-(2-(4-((4-(1-(2,6-dioxopiperidin-3-yl)-3-methyl-2-oxo-2,3-dihydro-1H-benzo[d]imidazol-5-yl)piperidin-1-yl)methyl)piperidin-1-yl)-7-azaspiro[3.5]nonan-7-yl)pyrimidin-4-yl)methoxy)phenyl)propan-2-yl)-2-ethoxybenzonitrile], the IC50 (Homo sapiens, 22Rv1, 168 h) was found to be 330 nM.
